According to US20100234419A1, “SUBSTITUTED 3-AMINOISOXAZOLOPYRIDINES AS KCNQ2/3 MODULATORS” (GRUNENTHAL GMBH, priority 2009, published 2010):
pEC50: −log10 of the molar value.

Biological target: T1, KCNQ2/3 channels (Homo sapiens, UniProt O43525+O43526)
T1 construct: expressed in transfected cells; host or cells: CHO-K1 cells, kept under selection antibiotics
Test: Fluorescence assay using a voltage sensitive dye (fluorimetry)
Assay type: cell-based
Conditions: for KCNQ2/3 stimulation at 10 μM: Table 4 comparison experiments; for Emax at 10 µM: relative to retigabine = 100%, read-out: Fluorimetry % efficacy @ 10 μM (retigabine = 100%); for Emax at 10 µM / pEC50: CHO-K1 cells expressing KCNQ2/3; for activity towards the KCNQ2/3 receptor: nitrogen atom introduced into the phenyl ring of the benzoisoxazole structure
Experimental: […] CHO-K1 cells expressing KCNQ2/3 channels are cultivated adherently at 37° C., 5% CO2 and 95% humidity in cell culture bottles (e.g. 80 cm^2 TC flasks, Nunc) with DMEM-high glucose (Sigma Aldrich, D7777) including 10% FCS (PAN Biotech, e.g. 3302-P270521) or alternatively MEM Alpha Medium (1×, liquid, Invitrogen, #22571), 10% fetal calf serum (FCS) (Invitrogen, #10270-106, heat-inactivated) and the necessary selection antibiotics.
Before being sown out for the measurements, the cells are washed with a 1×DPBS buffer without Ca^2+/Mg^2+ (e.g. Invitrogen, #14190-094) and detached from the bottom of the culture vessel by means of Accutase (PAA Laboratories, #L11-007) (incubation with Accutase for 15 min at 37° C.). The cell count then present is determined using a CASY™ cell counter (TCC model, Scharfe System) in order subsequently to apply, depending on the density optimization for the individual cell line, 20,000-30,000 cells/well/100 μl of the described nutrient medium to 96-well measuring plates of the Corning™ CelIBIND™ type (Flat Clear Bottom Black Polystyrene Microplates, #3340). Incubation is then carried out for one hour at room temperature, without gassing or adjusting the humidity, followed by incubation for 24 hours at 37° C., 5% CO2 and 95% humidity.
The voltage-sensitive fluorescent dye from the Membrane Potential Assay Kit (Red™ Bulk format part R8123 for FLIPR, MDS Analytical Technologies™) is prepared by dissolving the contents of a vessel Membrane Potential Assay Kit Red Component A in 200 ml of extracellular buffer (ES buffer, 120 mM NaCl, 1 mM KCl, 10 mM HEPES, 2 mM CaCl2, 2 mM MgCl2, 10 mM glucose; pH 7.4). After removal of the nutrient medium, the cells are washed with 200 μl of ES buffer, then covered with a layer of 100 μl of the dye solution prepared above and incubated for 45 min at room temperature with the exclusion of light.
The fluorescence measurements are carried out with a BMG Labtech FLUOstar™ BMG Labtech NOVOstar™ or BMG Labtech POLARstar™ instrument (525 nm excitation, 560 nm emission, Bottom Read mode). After incubation of the dye, 50 μl of the test substances in the desired concentrations, or 50 μl of ES buffer for control purposes, are introduced into separate cavities of the measuring plate and incubated for 30 min at room temperature while being shielded from light. The fluorescence intensity of the dye is then measured for 5 min and the fluorescence value F1 of each well is thus determined at a given, constant time. […] of a 100 mM KCl solution (final concentration […]) are then added to each well. The change in fluorescence is subsequently measured until all the relevant measured values have been obtained (mainly 5-30 min). At a given time after KCl application, a fluorescence value F2 is determined, in this case at the time of the fluorescence peak.
For calculation, the fluorescence intensity F2 is compared with the fluorescence intensity F1, and the agonistic activity of the target compound on the potassium channel is determined therefrom. F2 and F1 are calculated as follows: […]
Calculations of EC50 values are carried out with the aid of ‘Prism v4.0’ software (GraphPad Software™).

Row | SMILES | KCNQ2/3 stimulation at 10 μM [%] | Emax at 10 µM [%] | pEC50 | activity towards the KCNQ2/3 receptor
1 | CC(Nc1noc2ncccc12)c1ccc(C(F)(F)F)cc1 (stereo not drawn) [Exemplary compound 1, N-(1-(4-(trifluoromethyl)phenyl)ethyl)-isoxazolo[5,4-b]pyridin-3-amine] | – | 43 | – | –
2 | Cc1cc(C)cc(CNc2noc3ncccc23)c1 [Exemplary compound 3, N-(3,5-dimethyl-benzyl)isoxazolo[5,4-b]pyridin-3-amine] | – | 34 | – | –
3 | Cc1cc(C)cc(C(C)Nc2noc3ncccc23)c1 (stereo not drawn) [Exemplary compound 4, N-(1-(3,5-dimethyl-phenyl)ethyl)-isoxazolo[5,4-b]pyridin-3-amine] | – | 65 | – | –
4 | Cc1cc(C)cc(CNc2noc3cnccc23)c1 [Exemplary compound 7, N-(3,5-dimethyl-benzyl)isoxazolo[5,4-c]pyridin-3-amine] | – | 29 | – | –
5 | Cc1cc(C)cc(C(C)Nc2noc3cccnc23)c1 (stereo not drawn) [Exemplary compound 10, N-(1-(3,5-dimethyl-phenyl)ethyl)-isoxazolo[4,5-b]pyridin-3-amine] | – | 27 | – | –
6 | CC(Nc1noc2cccnc12)c1ccc(SC(F)(F)F)cc1 (stereo not drawn) [Exemplary compound 13, N-(1-(4-(trifluoromethylthio)phenyl)-ethyl)isoxazolo[4,5-b]pyridin-3-amine] | – | 50 | – | –
7 | CC(Nc1noc2cnccc12)c1ccc(C(F)(F)F)cc1 (stereo not drawn) [Exemplary compound 14, N-(1-(4-(trifluoromethyl)phenyl)-ethyl)isoxazolo[5,4-c]pyridin-3-amine] | – | 78 | – | –
8 | Cc1cc(C)cc(C(C)Nc2noc3cnccc23)c1 (stereo not drawn) [Exemplary compound 15, N-(1-(3,5-dimethyl-phenyl)ethyl)-isoxazolo[5,4-c]pyridin-3-amine] | – | 73 | – | –
9 | Cc1cc(C)cc(C(C)Nc2noc3ccncc23)c1 (stereo not drawn) [Exemplary compound 16, N-(1-(3,5-dimethyl-phenyl)ethyl)-isoxazolo[4,5-c]pyridin-3-amine] | – | 15 | – | –
10 | CC(Nc1noc2ccncc12)c1ccc(SC(F)(F)F)cc1 (stereo not drawn) [Exemplary compound 17, N-(1-(4-(trifluoromethylthio)phenyl)ethyl)-isoxazolo[4,5-c]pyridin-3-amine] | – | 49 | 6.05 | –
11 | Cc1cc(C)cc(C(C)Nc2noc3nc(C(F)(F)F)ccc23)c1 (stereo not drawn) [Exemplary compound 18, N-(1-(3,5-dimethylphenyl)ethyl)-6-(trifluoromethyl)isoxazolo[5,4-b]-pyridin-3-amine] | – | 43 | – | –
12 | Cc1cc(C)cc(C(C)Nc2noc3c(C(F)(F)F)nccc23)c1 (stereo not drawn) [Exemplary compound 21, N-(1-(3,5-dimethyl-phenyl)ethyl)-7-trifluoromethyl-isoxazolo[5,4-c]pyridin-3-amine] | – | 39 | – | –
13 | Cc1cc(C)cc(C(C)Nc2noc3nc(C)ccc23)c1 (stereo not drawn) [Exemplary compound 22, N-(1-(3,5-dimethylphenyl)ethyl)-6-methyl-isoxazolo[5,4-b]pyridin-3-amine] | – | 49 | 6.64 | –

The next lines start with the values.

Row | KCNQ2/3 stimulation at 10 μM [%] | Emax at 10 µM [%] | pEC50 | activity towards the KCNQ2/3 receptor | SMILES
14 | 75 | – | – | – | FC(F)(F)Sc1ccc(CNc2noc3ccccc23)cc1 [E1, reference compound]
15 | 77 | 77 | 5.77 | still present | FC(F)(F)Sc1ccc(CNc2noc3ncccc23)cc1 [Exemplary compound 2, N-(4-(Trifluoromethylthio)benzyl)-isoxazolo[5,4-b]pyridin-3-amine]
16 | – | 97 | – | – | CC(Nc1noc2ncccc12)c1ccc(SC(F)(F)F)cc1 (stereo not drawn) [Exemplary compound 5, N-(1-(4-(trifluoromethylthio)phenyl)ethyl)-isoxazolo[5,4-b]pyridin-3-amine]
17 | 65 | 65 | – | still present | FC(F)(F)Sc1ccc(CNc2noc3cnccc23)cc1 [Exemplary compound 6, N-(4-(trifluoromethylthio)benzyl)-isoxazolo[5,4-c]pyridin-3-amine]
18 | 86 | 86 | – | still present | FC(F)(F)Sc1ccc(CNc2noc3cccnc23)cc1 [Exemplary compound 9, N-(4-(trifluoromethylthio)benzyl)-isoxazolo[4,5-b]pyridin-3-amine]
19 | 39 | 39 | – | still present | FC(F)(F)Sc1ccc(CNc2noc3ccncc23)cc1 [Exemplary compound 12, N-(4-(trifluoromethylthio)benzyl)-isoxazolo[4,5-c]pyridin-3-amine]
20 | – | 41 | – | – | FC(F)(F)Sc1ccc(CNc2noc3nc(C(F)(F)F)ccc23)cc1 [Exemplary compound 19, N-(4-(trifluoromethylthio)benzyl)-6-trifluoromethyl-isoxazolo[5,4-b]pyridin-3-amine]
21 | – | 49 | – | – | Cc1ccc2c(NCc3ccc(SC(F)(F)F)cc3)noc2n1 [Exemplary compound 20, 6-methyl-N-(4-(trifluoromethylthio)benzyl)-isoxazolo[5,4-b]pyridin-3-amine]
22 | – | 27 | – | – | FC(F)(F)Sc1ccc(CNc2noc3c(C(F)(F)F)nccc23)cc1 [Exemplary compound 23, N-(4-(trifluoromethylthio)benzyl)-7-trifluoromethyl-isoxazolo[5,4-c]pyridin-3-amine]
23 | – | 38 | 6.39 | – | FC(F)(F)Sc1ccc(CNc2noc3nc4ccccc4cc23)cc1 [Exemplary compound 24, N-(4-(trifluoromethylthio)benzyl)-isoxazolo[5,4-b]quinolin-3-amine]
24 | – | 19 | – | – | FC(F)(F)Sc1ccc(CNc2noc3ccnc(Cl)c23)cc1 [Exemplary compound 25, 4-chloro-N-(4-(trifluoromethylthio)benzyl)-isoxazolo[4,5-c]pyridin-3-amine]
